Key:
Type in all cases: in vivo
[1] = tested on: yellow nutsedge (Cyperus esculentus); assay: Test C postemergence; conditions: scale 0 to 100, 0 is no effect, 100 is complete control
Source text: (§1) Seeds of plant species selected from blackgrass (Alopecurus myosuroides), Italian ryegrass (Lolium multiflorum), winter wheat (Triticum aestivum), galium (catchweed bedstraw, Galium aparine), corn (Zea mays), large (Lg) crabgrass (Digitaria sanguinalis), giant foxtail (Setaria faberii), johnsongrass (Sorghum halepense), lambsquarters (Chenopodium album), morningglory (Ipomoea coccinea), yellow nutsedge (Cyperus esculentus), pigweed (Amaranthus retroflexus), ragweed (common ragweed, Ambrosia elatior), soybean (Glycine max), barnyardgrass (Echinochloa crus-galli), oilseed rape (Brassica napus), waterhemp (common waterhemp, Amaranthus rudis), and velvetleaf (Abutilon theophrasti) were planted into a blend of loam soil and sand and treated preemergence with test chemicals formulated in a non-phytotoxic solvent mixture which included a surfactant. At the same time, plants selected from these crop and weed species and also chickweed (common chickweed, Stellaria media), kochia (Kochia scoparia), and wild oat (Avena fatua), were planted in pots containing Sunshine Redi-Earth® planting medium comprising spaghnum peat moss, vermiculite, starter nutrients and dolomitic limestone and treated with postemergence applications of test chemicals formulated in the same manner. Plants ranged in height from 2 to 18 cm (1- to 4-leaf stage) for postemergence treatments. Treated plants and controls were maintained in a greenhouse for 13 to 15 days, after which time all species were compared to controls and visually evaluated. Plant response ratings, summarized in Table C, are based on a scale of 0 to 100 where 0 is no effect and 100 is complete control. A dash (-) response means no test result.

[2] = tested on: giant foxtail (Setaria faberii); assay: Test C postemergence; conditions: scale 0 to 100, 0 is no effect, 100 is complete control
Source text: as §1

[3] = tested on: oilseed rape (Brassica napus); assay: Test C preemergence; conditions: scale 0 to 100, 0 is no effect, 100 is complete control
Source text: as §1

[4] = tested on: waterhemp (common waterhemp, Amaranthus rudis); assay: Test C preemergence; conditions: scale 0 to 100, 0 is no effect, 100 is complete control
Source text: as §1

[5] = tested on: yellow nutsedge (Cyperus esculentus); assay: Test C preemergence; conditions: scale 0 to 100, 0 is no effect, 100 is complete control
Source text: as §1

[6] = tested on: soybean (Glycine max); assay: Test C preemergence; conditions: scale 0 to 100, 0 is no effect, 100 is complete control
Source text: as §1

[7] = tested on: johnsongrass (Sorghum halepense); assay: Test C preemergence; conditions: scale 0 to 100, 0 is no effect, 100 is complete control
Source text: as §1

[8] = tested on: blackgrass (Alopecurus myosuroides); assay: Test C preemergence; conditions: scale 0 to 100, 0 is no effect, 100 is complete control
Source text: as §1

[9] = tested on: pigweed (Amaranthus retroflexus); assay: Test C preemergence; conditions: scale 0 to 100, 0 is no effect, 100 is complete control
Source text: as §1

[10] = tested on: barnyardgrass (Echinochloa crus-galli); assay: Test C preemergence; conditions: scale 0 to 100, 0 is no effect, 100 is complete control
Source text: as §1

[11] = tested on: lambsquarters (Chenopodium album); assay: Test C preemergence; conditions: scale 0 to 100, 0 is no effect, 100 is complete control
Source text: as §1

[12] = tested on: corn (Zea mays); assay: Test C preemergence; conditions: scale 0 to 100, 0 is no effect, 100 is complete control
Source text: as §1

[13] = tested on: morningglory (Ipomoea coccinea); assay: Test C preemergence; conditions: scale 0 to 100, 0 is no effect, 100 is complete control
Source text: as §1

[14] = tested on: winter wheat (Triticum aestivum); assay: Test C preemergence; conditions: scale 0 to 100, 0 is no effect, 100 is complete control
Source text: as §1

[15] = tested on: ragweed (common ragweed, Ambrosia elatior); assay: Test C preemergence; conditions: scale 0 to 100, 0 is no effect, 100 is complete control
Source text: as §1

[16] = tested on: Italian ryegrass (Lolium multiflorum); assay: Test A preemergence, directed soil spray; conditions: approx. 10 days
How it was run: (§2)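 Ratings reflect visual injury compared with untreated controls roughly 10 days after treatment, scored 0 (no effect) to 100 (complete control). Applications were preemergence soil sprays or postemergence sprays on young one- to two-leaf plants.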

[17] = tested on: giant foxtail (Setaria faberii); assay: Test A preemergence, directed soil spray; conditions: approx. 10 days
How it was run: as §2

[18] = tested on: kochia (Kochia scoparia); assay: Test A preemergence, directed soil spray; conditions: approx. 10 days
How it was run: as §2

[19] = tested on: pigweed (Amaranthus retroflexus); assay: Test A preemergence, directed soil spray; conditions: approx. 10 days
How it was run: as §2

[20] = tested on: barnyardgrass (Echinochloa crus-galli); assay: Test A preemergence, directed soil spray; conditions: approx. 10 days
How it was run: as §2

[21] = tested on: ragweed (common ragweed, Ambrosia elatior); assay: Test A preemergence, directed soil spray; conditions: approx. 10 days
How it was run: as §2

O=c1cccc(Oc2ncc(Cl)cn2)n1-c1ccc(Cl)cc1 [Compound 1, 1-(4-chlorophenyl)-6-[(5-chloro-2-pyrimidinyl)oxy]-2(1H)-pyridinone]
Plant response rating, Nutsedge, Yellow ([1]; 16 g ai/ha): 5
Plant response rating, Nutsedge, Yellow ([1]; 31 g ai/ha): 5
Plant response rating, Nutsedge, Yellow ([1]; 62 g ai/ha): 5
Plant response rating, Nutsedge, Yellow ([1]; 125 g ai/ha): 10
Plant response rating, Foxtail, Giant ([2]; 16 g ai/ha): 5
Plant response rating, Foxtail, Giant ([2]; 31 g ai/ha): 10
Plant response rating, Foxtail, Giant ([2]; 62 g ai/ha): 10
Plant response rating, Foxtail, Giant ([2]; 125 g ai/ha): 10
Plant response rating, Oilseed Rape ([3]; 16 g ai/ha): 0
Plant response rating, Oilseed Rape ([3]; 31 g ai/ha): 0
Plant response rating, Oilseed Rape ([3]; 62 g ai/ha): 10
Plant response rating, Oilseed Rape ([3]; 125 g ai/ha): 60
Plant response rating, Waterhemp ([4]; 16 g ai/ha): 20
Plant response rating, Waterhemp ([4]; 31 g ai/ha): 65
Plant response rating, Waterhemp ([4]; 62 g ai/ha): 100
Plant response rating, Waterhemp ([4]; 125 g ai/ha): 100
Plant response rating, Nutsedge, Yellow ([5]; 16 g ai/ha): 0
Plant response rating, Nutsedge, Yellow ([5]; 31 g ai/ha): 0
Plant response rating, Nutsedge, Yellow ([5]; 62 g ai/ha): 0
Plant response rating, Nutsedge, Yellow ([5]; 125 g ai/ha): 5
Plant response rating, Soybean ([6]; 16 g ai/ha): 0
Plant response rating, Soybean ([6]; 31 g ai/ha): 10
Plant response rating, Soybean ([6]; 62 g ai/ha): 10
Plant response rating, Johnsongrass ([7]; 16 g ai/ha): 0
Plant response rating, Johnsongrass ([7]; 31 g ai/ha): 0
Plant response rating, Johnsongrass ([7]; 62 g ai/ha): 5
Plant response rating, Johnsongrass ([7]; 125 g ai/ha): 15
Plant response rating, Blackgrass ([8]; 16 g ai/ha): 0
Plant response rating, Blackgrass ([8]; 31 g ai/ha): 20
Plant response rating, Blackgrass ([8]; 62 g ai/ha): 25
Plant response rating, Blackgrass ([8]; 125 g ai/ha): 85
Plant response rating, Pigweed ([9]; 16 g ai/ha): 25
Plant response rating, Pigweed ([9]; 31 g ai/ha): 65
Plant response rating, Pigweed ([9]; 62 g ai/ha): 75
Plant response rating, Pigweed ([9]; 125 g ai/ha): 100
Plant response rating, Barnyardgrass ([10]; 16 g ai/ha): 5
Plant response rating, Barnyardgrass ([10]; 31 g ai/ha): 20
Plant response rating, Barnyardgrass ([10]; 62 g ai/ha): 40
Plant response rating, Barnyardgrass ([10]; 125 g ai/ha): 75
Plant response rating, Lambsquarters ([11]; 16 g ai/ha): 30
Plant response rating, Lambsquarters ([11]; 31 g ai/ha): 20
Plant response rating, Lambsquarters ([11]; 62 g ai/ha): 45
Plant response rating, Lambsquarters ([11]; 125 g ai/ha): 60
Plant response rating, Corn ([12]; 16 g ai/ha): 0
Plant response rating, Corn ([12]; 31 g ai/ha): 0
Plant response rating, Corn ([12]; 62 g ai/ha): 0
Plant response rating, Corn ([12]; 125 g ai/ha): 0
Plant response rating, Morningglory ([13]; 16 g ai/ha): 0
Plant response rating, Morningglory ([13]; 31 g ai/ha): 0
Plant response rating, Morningglory ([13]; 62 g ai/ha): 0
Plant response rating, Morningglory ([13]; 125 g ai/ha): 15
Plant response rating, Wheat ([14]; 16 g ai/ha): 0
Plant response rating, Wheat ([14]; 31 g ai/ha): 0
Plant response rating, Wheat ([14]; 62 g ai/ha): 0
Plant response rating, Wheat ([14]; 125 g ai/ha): 0
Plant response rating, Ragweed ([15]; 16 g ai/ha): 0
Plant response rating, Ragweed ([15]; 31 g ai/ha): 0
Plant response rating, Ragweed ([15]; 62 g ai/ha): 10
Plant response rating, Ragweed ([15]; 125 g ai/ha): 0
Plant response rating (0 to 100 scale, 0 no effect, 100 complete control), Ryegrass, Italian ([16]; 125 g ai/ha): 0
Plant response rating (0 to 100 scale, 0 no effect, 100 complete control), Ryegrass, Italian ([16]; 500 g ai/ha): 20
Plant response rating (0 to 100 scale, 0 no effect, 100 complete control), Foxtail, Giant ([17]; 125 g ai/ha): 90
Plant response rating (0 to 100 scale, 0 no effect, 100 complete control), Foxtail, Giant ([17]; 500 g ai/ha): 100
Plant response rating (0 to 100 scale, 0 no effect, 100 complete control), Kochia ([18]; 125 g ai/ha): 40
Plant response rating (0 to 100 scale, 0 no effect, 100 complete control), Kochia ([18]; 500 g ai/ha): 100
Plant response rating (0 to 100 scale, 0 no effect, 100 complete control), Pigweed ([19]; 125 g ai/ha): 40
Plant response rating (0 to 100 scale, 0 no effect, 100 complete control), Pigweed ([19]; 500 g ai/ha): 100
Plant response rating (0 to 100 scale, 0 no effect, 100 complete control), Barnyardgrass ([20]; 125 g ai/ha): 30
Plant response rating (0 to 100 scale, 0 no effect, 100 complete control), Barnyardgrass ([20]; 500 g ai/ha): 100
Plant response rating (0 to 100 scale, 0 no effect, 100 complete control), Ragweed ([21]; 125 g ai/ha): 0
Plant response rating (0 to 100 scale, 0 no effect, 100 complete control), Ragweed ([21]; 500 g ai/ha): 20

— US9963442B2, “Pyridones as herbicides” (E I DU PONT DE NEMOURS AND COMPANY, priority 2014, dated 2018)
